From patent US9650375B2, “Indole derivatives useful as anti-diabetic agents” (Merck Sharp & Dohme Corp., priority 2013, dated 2017)

How the values were obtained:
[1] = molecular target: T1, recombinant human AMPK complex 1 (containing α1β1γ1) (Homo sapiens, UniProt Q13131+Q9Y478); assay: In vitro AMPK activation assay (AMPKSAMSF), AMPK complex 1; format: biochemical; conditions: for Emax: 10-point titration data expressed as % maximum AMP activation; for EC50: human AMPK complex 1, inflection point reflecting 50% of the maximum activation
T1 construct: made in house; host or cells: Spodoptera frugiperda Sf21 cells (baculovirus, triple infection)
T1 sequence (Q13131 whole entry): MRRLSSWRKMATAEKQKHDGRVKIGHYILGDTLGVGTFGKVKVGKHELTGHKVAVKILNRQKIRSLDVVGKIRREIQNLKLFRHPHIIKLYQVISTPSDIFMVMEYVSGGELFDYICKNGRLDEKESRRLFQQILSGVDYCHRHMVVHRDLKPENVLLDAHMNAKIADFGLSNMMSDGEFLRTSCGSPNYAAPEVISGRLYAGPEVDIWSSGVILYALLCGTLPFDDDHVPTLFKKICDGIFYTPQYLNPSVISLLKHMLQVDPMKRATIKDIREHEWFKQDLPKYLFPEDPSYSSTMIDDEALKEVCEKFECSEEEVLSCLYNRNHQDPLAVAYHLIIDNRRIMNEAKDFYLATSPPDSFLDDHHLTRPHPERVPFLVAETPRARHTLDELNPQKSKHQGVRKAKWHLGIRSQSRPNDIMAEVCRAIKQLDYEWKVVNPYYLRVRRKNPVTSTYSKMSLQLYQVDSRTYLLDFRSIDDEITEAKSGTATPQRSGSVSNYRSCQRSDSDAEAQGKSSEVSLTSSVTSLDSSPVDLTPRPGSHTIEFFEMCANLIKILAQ
T1 sequence (Q9Y478 whole entry): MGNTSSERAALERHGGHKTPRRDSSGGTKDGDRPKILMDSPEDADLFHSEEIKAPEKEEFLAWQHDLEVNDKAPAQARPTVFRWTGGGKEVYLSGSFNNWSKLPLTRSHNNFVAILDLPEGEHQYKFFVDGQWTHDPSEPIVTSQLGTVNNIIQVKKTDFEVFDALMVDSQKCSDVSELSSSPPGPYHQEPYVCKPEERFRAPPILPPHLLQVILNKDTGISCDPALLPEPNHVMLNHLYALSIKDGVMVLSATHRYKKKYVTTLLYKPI
T1 sequence (P54619 whole entry partner): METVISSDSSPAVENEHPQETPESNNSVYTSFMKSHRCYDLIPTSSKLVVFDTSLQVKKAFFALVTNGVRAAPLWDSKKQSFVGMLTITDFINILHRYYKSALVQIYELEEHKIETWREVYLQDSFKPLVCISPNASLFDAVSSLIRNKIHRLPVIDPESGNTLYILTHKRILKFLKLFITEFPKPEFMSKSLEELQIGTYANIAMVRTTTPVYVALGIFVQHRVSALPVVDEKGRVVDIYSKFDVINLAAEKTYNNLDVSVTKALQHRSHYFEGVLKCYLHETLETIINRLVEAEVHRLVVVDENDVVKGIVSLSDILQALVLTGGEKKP
Experimental: (§1) AMPKSAMSF (In Vitro AMPK Activation Assay)
(§2) The recombinant human AMPK complex 1 (containing α1β1γ1) and complex 7 (containing α2β1γ1) were obtained from baculovirus expression system. Recombinant viruses were generated by cotransfection of AMPK/pBacPak9 clones with Baculogold baculovirus DNA (Pharmingen) in spodoptera frugiperda 21 cells according to the manufacturer's instructions. Each round of virus amplification was performed for 5 days in Grace's medium containing 10% serum. Virus that had been subjected to three rounds of amplification was used for all protein production procedures. To express the AMPK complex, sf21 cells were adapted to serum free medium (SF900 II, Invitrogen) by sequential dilution from serum containing stocks into SF900II medium and maintained in shaker flasks at 90 rpm at 27° C. The recombinant AMPK enzyme complex was produced by triple infection, one recombinant virus for each of the subunits, in sf21 cells under serum free conditions. Cells were infected in log phase, 1×10^6 cells/ml, at a multiplicity of infection of ˜5. Cells were harvested by centrifugation at 10,000×g for 15 minutes after 72 hours of infection with viruses. The insect cell pellet from 2 liters of culture was resuspended in 50 ml lysis buffer (20 mM Tris-HCl, 50 mM NaCl, 50 mM NaF, 30 mM Na PPi, 0.25 M sucrose, 10 mM ZnCl2, 2 mM DTT, 0.4 mg/ml digitonin) and subjected to two cycles of freeze-thaw lysis in a dry-ice ethanol bath. Insoluble material was removed by centrifugation at 10,000×g and the supernatant was fractionated with use of polyethylene glycol (PEG). The protein fraction precipitating between 2.5 and 6% PEG was used for further purification using a Blue-Sepharose step (Zhou et al, J. Clin. Invest. 108, 1167-1174, 2001).
(§3) The in vitro AMPK activation assay is performed in a volume of 30 μl in a 384-well plate. Enzyme reactions were assembled in the microtiter plate by adding 15 μl of 2× enzyme in assay buffer (20 mM HEPES, pH 7.3, 5 mM MgCl2, 3 mM DTT, 0.01% Brij 35 and CamK Kinase, to activate AMPK) to wells which contained either DMSO or compound. The reaction was initiated with the addition of 15 μ12× substrate mixture containing 200 μM ATP, and 3.0 μM fluorescently labeled SAMS (5-FAM-HMRSAMSGLHLVKRR—COOH) in assay buffer. After 45-minute incubation at 25° C., the reaction was stopped by the addition of 70 μl stop buffer (100 mM HEPES, pH 7.3, 40 mM EDTA, 0.015% Brij 35). Phosphorylated 5-FAM SAMS product is assessed using a Caliper EZ Reader LabChip microfluidics reader. Product conversion is determined by calculating the peak heights of the substrate and product and reporting the product/(product+substrate) peak ratio. The 10-point titration data were expressed as % maximum AMP activation. The results were plotted using 4 parameter fit and the inflection point reflecting 50% of the maximum activation was reported as the EC50.
(§4) The compounds of present invention, including the compounds of Examples 1-142, were tested in the in vitro AMPK activation assay using recombinant human AMPK complex 1 (containing α1β1γ1) or AMPK complex 7 (containing α2β1γ1) and found to have increased activation of human AMPK complex 1 or complex 7 at concentrations of less than 50 μM.

[2] = molecular target: T2, recombinant human AMPK complex 7 (containing α2β1γ1) (Homo sapiens, UniProt P54646+Q9Y478); assay: In vitro AMPK activation assay (AMPKSAMSF), AMPK complex 7; format: biochemical; conditions: for Emax: 10-point titration data expressed as % maximum AMP activation; for EC50: human AMPK complex 7, inflection point reflecting 50% of the maximum activation
T2 construct: made in house; host or cells: Spodoptera frugiperda Sf21 cells (baculovirus, triple infection)
T2 sequence (P54646 whole entry): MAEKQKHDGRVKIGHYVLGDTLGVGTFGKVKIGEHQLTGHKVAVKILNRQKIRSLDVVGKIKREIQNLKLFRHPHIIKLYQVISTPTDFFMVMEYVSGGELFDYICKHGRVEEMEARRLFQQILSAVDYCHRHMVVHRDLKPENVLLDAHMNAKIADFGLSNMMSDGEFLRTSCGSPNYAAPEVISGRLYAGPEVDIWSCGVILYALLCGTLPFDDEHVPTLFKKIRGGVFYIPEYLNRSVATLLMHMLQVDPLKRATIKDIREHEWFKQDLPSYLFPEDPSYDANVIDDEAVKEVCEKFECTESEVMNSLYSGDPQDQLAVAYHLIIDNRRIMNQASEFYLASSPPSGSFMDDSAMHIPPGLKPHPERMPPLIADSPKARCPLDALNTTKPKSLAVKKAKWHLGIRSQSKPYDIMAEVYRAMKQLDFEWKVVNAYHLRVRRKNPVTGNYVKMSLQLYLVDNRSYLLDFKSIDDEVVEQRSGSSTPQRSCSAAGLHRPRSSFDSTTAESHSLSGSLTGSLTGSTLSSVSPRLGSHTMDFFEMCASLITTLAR
T2 sequence (Q9Y478 whole entry): as the sequence (Q9Y478 whole entry) above
T2 sequence (P54619 whole entry partner): as the sequence (P54619 whole entry partner) above
Experimental: as §1, §2, §3, §4

[3] = tested on: ob/ob and db/db mice; conditions: following 8 weeks of administration; cited from earlier work

Q: What does the source list for `CCOc1ccc(-c2cc3cc(Cc4ccc(C)c(C(=O)O)c4)[nH]c3cc2Cl)c(F)c1` [Example 8, 5-((6-chloro-5-(4-ethoxy-2-fluorophenyl)-1H-indol-2-yl)methyl)-2-methylbenzoic acid]?
A: Emax [1]: 265%; EC50 [1]: 493 nM

Q: Which results are given for `O=S1(=O)CCN(c2ccc(-c3nc4cc(O[C@@H]5CO[C@H]6[C@@H]5OC[C@H]6O)[nH]c4cc3Cl)cc2)CC1` [Example 105]?
A: Emax [2]: 495%; EC50 [2]: 8 nM

Q: With `OC[C@H]1OC[C@@H](Oc2cc3nc(-c4ccc(-c5ccccc5)cc4)c(Cl)cc3[nH]2)[C@@H]1O` [Example 123] as the compound, how does the Emax [2] read?
A: 295%

Q: And the EC50 [2]?
A: 12 nM

Q: Which Emax [2] does the source give for `O[C@@H]1CO[C@H]2[C@@H]1OC[C@H]2Oc1cc2nc(-c3ccc(-c4ccccc4)cc3)c(Cl)cc2[nH]1` [Example 69] here?
A: 354%

Q: And the EC50 [2]?
A: 5 nM

Q: Which results are given for `Cc1ccc(Oc2cc3nc(-c4ccc(-c5ccccc5)cc4)c(Cl)cc3[nH]2)cc1C(=O)O` [Example 80]?
A: Emax [2]: 230%; EC50 [2]: < 3 nM

Q: Which Emax [1] does the source give for `CS(=O)(=O)c1ccc(-c2ccc(-c3nc4cc(CCCCC(=O)O)[nH]c4cc3Cl)cc2)cc1` [Example 23] here?
A: 575%

Q: What about the EC50 [1] of the same compound?
A: 1 nM

Q: Which Emax [2] does the source give for `OCC1(c2ccc(-c3nc4cc(O[C@@H]5CO[C@H]6[C@@H]5OC[C@H]6O)[nH]c4cc3F)cc2)CC1` [Example 72] here?
A: 530%

Q: And the EC50 [2]?
A: < 3 nM

Q: With `Cc1ccc(Oc2cc3nc(-c4ccc(-c5ccccc5)cc4)c(F)cc3[nH]2)cc1C(=O)O` [Example 82] as the compound, how does the Emax [2] read?
A: 239%

Q: What about the EC50 [2] of the same compound?
A: 6 nM

Q: With `Cc1ccc(Cc2cc3cc(-c4ccc(C5(CO)CC5)cc4)c(Cl)cc3[nH]2)cc1C(=O)O` [Example 6, 5-((6-chloro-5-(4-(1-(hydroxymethyl)cyclopropyl)phenyl)-1H-indol-2-yl)methyl)-2-methylbenzoic acid] as the compound, how does the Emax [1] read?
A: 601%

Q: What about the EC50 [1] of the same compound?
A: 10 nM

Q: For `OC[C@H]1OC[C@H](Oc2cc3nc(-c4ccc(-c5ccccc5)cc4)c(Cl)cc3[nH]2)C[C@@H]1O` [Example 121, (2R,3S,5R)-5-((5-([1,1′-biphenyl]-4-yl)-6-chloro-1H-pyrrolo[3,2-b]pyridin-2-yl)oxy)-2-(hydroxymethyl)tetrahydro-2H-pyran-3-ol], which Emax [2] is on record?
A: 213%

Q: And the EC50 [2]?
A: 71 nM

Q: For `CS(=O)(=O)c1ccc(-c2ccc(-c3nc4cc(C[C@H]5CC[C@H](CO)CC5)[nH]c4cc3Cl)cc2)cc1` [Example 24, ((trans)-4-((6-chloro-5-(4′-(methylsulfonyl)-[1,1′-biphenyl]-4-yl)-1H-pyrrolo[3,2-b]pyridin-2-yl)methyl)cyclohexyl)methanol], which Emax [1] is on record?
A: 256%

Q: And the EC50 [1]?
A: 14 nM

Q: Which results are given for `Cc1ccc(Cc2cc3cc(-c4ccc(-c5ccncc5)cc4)c(Cl)cc3[nH]2)cc1C(=O)O` [Example 30, 5-{[6-chloro-5-(4-pyridin-4-ylphenyl)-1H-indol-2-yl]methyl}-2-methylbenzoic acid]?
A: Emax [1]: 583%; EC50 [1]: 15 nM

Q: For `Cc1ccc(Cc2cc3nc(-c4ccc(C5(CO)CC5)cc4)c(Cl)cc3[nH]2)cc1C(=O)O` [Example 18, 5-((6-chloro-5-(4-(1-(hydroxymethyl)cyclopropyl)phenyl)-1H-pyrrolo[3,2-b]pyridin-2-yl)methyl)-2-methylbenzoic acid], which Emax [1] is on record?
A: 573%

Q: And the EC50 [1]?
A: 4 nM

Q: With `Cn1ccc2cc(-c3nc4cc(O[C@@H]5CO[C@H]6[C@@H]5OC[C@H]6O)[nH]c4cc3Cl)ccc21` [Example 77] as the compound, how does the Emax [2] read?
A: 472%

Q: What about the EC50 [2] of the same compound?
A: < 3 nM

Q: What does the source list for `Cc1c(O[C@@H]2CC[C@H]3[C@@H]2OC[C@H]3O)[nH]c2cc(Cl)c(-c3ccc(-c4ccccc4)cc3)nc12` [Example 138]?
A: Emax [2]: 486%; EC50 [2]: 56 nM

Q: Which Emax [2] does the source give for `Cc1ccc(Oc2cc3nc(-c4ccc(C5(CO)CC5)cc4)c(Cl)cc3[nH]2)cc1P(=O)(O)O` [Example 114, (5-((6-chloro-5-(4-(1-(hydroxymethyl)cyclopropyl)phenyl)-1H-pyrrolo[3,2-b]pyridin-2-yl)oxy)-2-methylphenyl)phosphonic acid] here?
A: 333%

Q: What about the EC50 [2] of the same compound?
A: < 3 nM

Q: With `O[C@@H]1CO[C@H]2[C@@H]1OC[C@H]2Oc1cc2nc(-c3ccc4c(c3)OCO4)c(Cl)cc2[nH]1` [Example 76] as the compound, how does the Emax [2] read?
A: 446%

Q: And the EC50 [2]?
A: < 3 nM

Q: What does the source list for `O[C@@H]1CO[C@H]2[C@@H]1OC[C@H]2Oc1cc2nc(-c3ccc(-c4ccc(-n5cncn5)cc4)cc3)c(Cl)cc2[nH]1` [Example 110]?
A: Emax [2]: 412%; EC50 [2]: < 1 nM

Q: What does the source list for `OC[C@H]1OC[C@H](Oc2cc3nc(-c4ccc(C5(CO)CC5)cc4)c(Cl)cc3[nH]2)C[C@@H]1O` [Example 122]?
A: Emax [2]: 384%; EC50 [2]: 4 nM

Q: For `CS(=O)(=O)c1ccc(-c2ccc(-c3nc4cc(CCCCO)[nH]c4cc3Cl)cc2)cc1` [Example 21], which Emax [1] is on record?
A: 590%

Q: What about the EC50 [1] of the same compound?
A: 2 nM

Q: Which Emax [2] does the source give for `OC[C@H]1OC[C@@H](Oc2cc3nc(-c4ccc(C5(CO)CC5)cc4)c(Cl)cc3[nH]2)[C@@H]1O` [Example 124] here?
A: 305%

Q: And the EC50 [2]?
A: 15 nM

Q: With `CS(=O)(=O)c1ccc(-c2ccc(-c3nc4cc(CCCC(=O)O)[nH]c4cc3Cl)cc2)cc1` [Example 22] as the compound, how does the Emax [1] read?
A: 416%

Q: What about the EC50 [1] of the same compound?
A: 8 nM

Q: For `NC(=O)c1ncn([C@@H]2O[C@H](CO)[C@@H](O)[C@H]2O)c1N` [AICAR], which blood glucose reduction [3] is on record?
A: 35%

Q: With `Oc1ccccc1-c1ccc(-c2nc3cc(O[C@@H]4CO[C@H]5[C@@H]4OC[C@H]5O)[nH]c3cc2Cl)cc1` [Example 107, (3R,3aR,6R,6aR)-6-((6-chloro-5-(2′-hydroxy-[1,1′-biphenyl]-4-yl)-1H-pyrrolo[3,2-b]pyridin-2-yl)oxy)hexahydrofuro[3,2-b]furan-3-ol] as the compound, how does the Emax [2] read?
A: 492%

Q: What about the EC50 [2] of the same compound?
A: < 1 nM

Q: For `CS(=O)(=O)c1ccc(-c2ccc(-c3cc4cc(CCCC(=O)O)[nH]c4cc3Cl)cc2)cc1` [Example 15], which Emax [1] is on record?
A: 370%

Q: And the EC50 [1]?
A: 24 nM

Q: With `Cc1ccc(Cc2cc3cc(-c4ccc(N5CCCC5)cc4)c(Cl)cc3[nH]2)cc1C(=O)O` [Example 1, 5-((6-chloro-5-(4-(pyrrolidin-1-yl)phenyl)-1H-indol-2-yl)methyl)-2-methylbenzoic acid] as the compound, how does the Emax [1] read?
A: 581%

Q: And the EC50 [1]?
A: 37 nM

Q: With `Cc1ccc(Cc2cc3cc(-c4ccc(-c5ccc(S(C)(=O)=O)cc5)cc4)c(Cl)cc3[nH]2)cc1C(=O)O` [Example 3] as the compound, how does the Emax [1] read?
A: 680%

Q: What about the EC50 [1] of the same compound?
A: 13 nM
